The nature of data set [1]: Dissolution profile of chewable tablet (release of pseudoephedrine and chlorpheniramine). It is filed as physicochemical. From the text: Below is a list of actual assay results for one example of the present invention with the composition listed as formula II above.
Below is a list of assay results for one example of the present invention with the composition listed as formula II above.

Data set [2] in a line: Dissolution profile of capsule (release of pseudoephedrine and chlorpheniramine). Format: physicochemical. Conditions: Table 4, capsules. The text has this: In addition the composition may be in the form of a capsule. Below is a list of actual assay results for one example of the present invention when in the form of a capsule.
Setting [3] is: Table 1, chewable tablet, composition formula II.
Where [4] appears, read: Table 2, after Example III, text says formula II.
The mark [5] stands for this setting: Table 3, composition listed as formula II.

Each structure is given as a SMILES string.

Consider `CN[C@@H](C)[C@@H](O)c1ccccc1` [Pseudoephedrine], for which, in data set [1] (setting [3]), the “release, 30 min (%)” value was determined as 27.6%; the “release, 1 Hr (%)” value was determined as 37.8%; the “release, 3 Hr (%)” value was 59.4%; the “release, 8 Hr (%)” value was determined as 82.0%. Moreover, in data set [1] (Table 1, chewable tablet, composition formula II, listed as pseudoephedrine), the “release, 30 min (%)” value was determined as 26.7%. Moreover, in data set [1] (setting [4]), the “release, 30 min (%)” value is on record as 27.0%; the “release, 1 Hr (%)” value was 36.3%; the “release, 3 Hr (%)” value was 53.0%; the “release, 8 Hr (%)” value came out at 78.4%. Moreover, in data set [1] (setting [5]), the “release, 30 min (%)” value turned out to be 29.2%; the “release, 1 Hr (%)” value amounted to 39.7%; the “release, 3 Hr (%)” value came out at 61.2%; the “release, 8 Hr (%)” value was 85.2%. Besides, in data set [2], the “release, 90 min (%)” value is on record as 34.8%; the “release, 3 Hr (%)” value is 54.1%; the “release, 6 Hr (%)” value is on record as 75.4%; the “release, 12 Hr (%)” value is recorded as 91.7%.
Turning to `CN(C)CCC(c1ccc(Cl)cc1)c1ccccn1` (stereo not drawn) [Chlorpheniramine], in data set [1] (setting [3]), the “release, 30 min (%)” value worked out at 35.1%; the “release, 1 Hr (%)” value was 42.7%; the “release, 3 Hr (%)” value is listed as 51.6%; the “release, 8 Hr (%)” value stood at 60.8%. In addition, in data set [1] (setting [4]), the “release, 30 min (%)” value amounted to 36.4%; the “release, 1 Hr (%)” value turned out to be 42.1%; the “release, 3 Hr (%)” value was 51.0%; the “release, 8 Hr (%)” value stood at 60.7%. In addition, in data set [1] (setting [5]), the “release, 30 min (%)” value is 40.1%; the “release, 1 Hr (%)” value came out at 45.1%; the “release, 3 Hr (%)” value was determined as 53.3%; the “release, 8 Hr (%)” value is 62.1%. In data set [2], the “release, 90 min (%)” value is 21.9%; the “release, 3 Hr (%)” value is recorded as 35.4%; the “release, 6 Hr (%)” value is 55.2%; the “release, 12 Hr (%)” value worked out at 78.6%.
